Experiments:
[1] = tested on: BCMA-expressing MOLP-8 tumors; experiment: MOLP-8 + PBMC subcutaneous xenogenic tumor model, dose response (Example 13); assay type: in vivo, mouse
Description: To determine the in vivo efficacy of anti-BCMA×anti-CD3 bispecific antibodies (Abs), a xenogenic tumor study was performed. Immunodeficient NOD.Cg-Prkdc^scidIl2rg^tm1Wji/SzJ (NSG) mice were subcutaneously implanted with a mixture of 5×10^6 BCMA-expressing MOLP-8 human multiple myeloma tumor cells and 1×10^6 human peripheral blood mononuclear cells (PBMC) isolated from a normal, healthy donor. […] The mice were administered these Abs twice per week for a total of seven doses, and tumor growth was assessed over 56 days. While the BCMA^+ MOLP-8 tumors grew similarly in the vehicle- and CD3-binding control-treated mice, both BCMA×CD3 Abs that were tested prevented the growth of tumors in a dose-dependent manner in vivo.
Implantation and measurement of xenogenic tumors: NSG mice were subcutaneously implanted with a mixture of 5×10^6 BCMA-expressing MOLP-8 multiple myeloma cells and 1×10^6 PBMC derived from a normal, healthy donor. […] The mice were administered Abs twice per week for a total of seven doses. Tumor growth was measured by caliper twice per week for the duration of the experiment.
Calculation of xenogenic tumor growth and inhibition: In order to determine tumor volume by external caliper, the greatest longitudinal diameter (length in mm) and the greatest transverse diameter (width in mm) were determined. Tumor volumes based on caliper measurements were calculated by the formula: Volume (mm^3)=(length×width^2)/2.

[2] = tested on: BCMA+ OPM-2-luciferase tumors; experiment: OPM-2-luciferase intravenous xenogenic tumor model, BLI (Example 15); assay type: in vivo, mouse; conditions: for tumor burden (in words): 0.4 mg/kg on days 21, 25 and 28
Description: (§1) To determine the in vivo efficacy of anti-BCMA×anti-CD3 bispecific antibodies (Abs), a xenogenic tumor study was performed. On day 0, immunodeficient NOD.Cg-Prkdc^scidIl2rg^tm1Wji/SzJ (NSG) mice were intravenously administered 2×10^6 BCMA^+ OPM-2 human multiple myeloma tumor cells that were engineered to also express firefly luciferase (OPM-2-luciferase cells). On day 10, the mice were intraperitoneally injected with 4×10^6 human peripheral blood mononuclear cells (PBMC) from a normal, healthy donor. […] The mice were administered these Abs twice more on days 25 and 28, for a total of three doses. Tumor growth was assessed through day 61 by measuring tumor bioluminescence (BLI) in anesthetized animals. As a positive control, a group of mice (n=5) was given only OPM-2-luciferase cells, but not PBMC or antibody.
as §1, with “Implantation and measurement” for “To determine the in vivo efficacy”, “of” for “of anti-BCMA×anti-CD3 bispecific antibodies (Abs), a”, “tumors:” for “tumor study was performed.”
Measurement of xenogenic tumor growth: BLI imaging was used to measure tumor burden. Mice were injected IP with 150 mg/kg of the luciferase substrate D-luciferin suspended in PBS. Five minutes after this injection, BLI imaging of the mice was performed under isoflurane anesthesia using the Xenogen IVIS system. Image acquisition was carried out with the field of view at D, subject height of 1.5 cm, and medium binning level with automatic exposure time determined by the Living Image Software. BLI signals were extracted using Living Image software: regions of interest were drawn around each tumor mass and photon intensities were recorded as p/s/cm2/sr.

[3] = tested on: Jurkat/NFATLuc.3C7 cells + Daudi cells; experiment: Jurkat/NFATLuc reporter bioassay with Daudi cells; assay type: cell-based; conditions: highest RLU / lowest RLU
Description: Activity of the anti-BCMA×anti-CD3 bispecific antibodies were assessed in a Jurkat/NFATLuc reporter bioassay utilizing several cell lines with varying levels of BCMA surface expression. The Jurkat cells were engineered to express an NFAT-luciferase reporter (Jurkat/NFATLuc.3C7), and 50,000 Jurkat reporter cells were combined with 50,000 BCMA positive (Daudi, MM1-S, NCI-H929, OPM-2, RPMI-8226, MOLP-8, or Raji) or BCMA negative (HEK293) cells in Thermo Nunclon delta 96 well white microwell plates (Thermo Scientific, Cat #136102) in 50 ul of assay media (RPMI media with 10% FBS and 1% P/S/G). Three-fold serial dilutions of the BCMA×CD3 bispecific antibodies (mAb25441 D or mAb25442D), or a bivalent anti-BCMA antibody (mAb21581) were immediately added in 50 μL of assay buffer. The plates were gently agitated and incubated in a 37° C., 5% CO2 incubator for 4-6 hours. NFAT-Luciferase activity was determined using Promega One-Glo (Cat #E6130) and a Perkin Elmer Envision plate reader. RLU were plotted in GraphPad Prism using a four-parameter logistic equation over a 12-point response curve to calculate EC50 values. […] The signal to noise (S:N) is determined by taking the ratio of the highest RLU on the curve to the lowest.

## REGN5458: anti-BCMA×anti-CD3 bispecific antibody: BCMA HCVR of mAb21581 (SEQ 66), CD3 HCVR of mAb7221G (SEQ 90), common LCVR SEQ 82
[1]; 0.04 mg/kg
  Average Tumor Size (mm3) ± SEM on Day 3: 9.3 ± 2.4 mm3
  Average Tumor Size (mm3) ± SEM on Day 7: 18.3 ± 5.0 mm3
  Average Tumor Size (mm3) ± SEM on Day 10: 73.9 ± 25.7 mm3
  Average Tumor Size (mm3) ± SEM on Day 14: 255.4 ± 79.7 mm3
  Average Tumor Size (mm3) ± SEM on Day 17: 494.3 ± 144.3 mm3
  Average Tumor Size (mm3) ± SEM on Day 21: 1373.0 ± 366.6 mm3
  Average Tumor Size (mm3) ± SEM on Day 23: 1882.3 ± 551.5 mm3
  Average Tumor Size (mm3) ± SEM on Day 28: 2542.5 ± 613.3 mm3
  Average Tumor Size (mm3) ± SEM on Day 31: 2906.1 ± 532.6 mm3
  Average Tumor Size (mm3) ± SEM on Day 35: 3538.0 ± 0.0 mm3
[1]; 0.4 mg/kg
  Average Tumor Size (mm3) ± SEM on Day 3: 13.5 ± 1.5 mm3
  Average Tumor Size (mm3) ± SEM on Day 10: 0 ± 0 mm3
  Average Tumor Size (mm3) ± SEM on Day 14: 0 ± 0 mm3
  Average Tumor Size (mm3) ± SEM on Day 17: 1.7 ± 1.7 mm3
  Average Tumor Size (mm3) ± SEM on Day 21: 5.3 ± 5.3 mm3
  Average Tumor Size (mm3) ± SEM on Day 23: 9.7 ± 9.7 mm3
  Average Tumor Size (mm3) ± SEM on Day 28: 47.4 ± 47.4 mm3
  Average Tumor Size (mm3) ± SEM on Day 31: 104.7 ± 92.6 mm3
  Average Tumor Size (mm3) ± SEM on Day 35: 375.1 ± 307.5 mm3
  Average Tumor Size (mm3) ± SEM on Day 42: 968.8 ± 689.2 mm3
  Average Tumor Size (mm3) ± SEM on Day 56: 1742.4 ± 635.2 mm3
[1]; 4 mg/kg
  Average Tumor Size (mm3) ± SEM on Day 3: 12.5 ± 1.3 mm3
  Average Tumor Size (mm3) ± SEM on Day 7: 0 ± 0 mm3
  Average Tumor Size (mm3) ± SEM on Day 10: 0 ± 0 mm3
  Average Tumor Size (mm3) ± SEM on Day 14: 0 ± 0 mm3
  Average Tumor Size (mm3) ± SEM on Day 17: 14.5 ± 7.3 mm3
  Average Tumor Size (mm3) ± SEM on Day 21: 102.7 ± 66.2 mm3
  Average Tumor Size (mm3) ± SEM on Day 23: 193.3 ± 117.7 mm3
  Average Tumor Size (mm3) ± SEM on Day 28: 627.4 ± 318.1 mm3
  Average Tumor Size (mm3) ± SEM on Day 31: 1018.5 ± 498.3 mm3
  Average Tumor Size (mm3) ± SEM on Day 35: 1342.9 ± 629.6 mm3
  Average Tumor Size (mm3) ± SEM on Day 42: 2363.0 ± 890.2 mm3
  Average Tumor Size (mm3) ± SEM on Day 56: 3108.1 ± 3108.1 mm3
[1]; 4 mg/kg, Day 49
  Average Tumor Size (mm3) ± SEM on Day 49: 1683.5 ± 1683.5 mm3
[2]
  tumor burden (in words): reduced tumor burdens to background levels in the majority of animals
[3]
  S:N: 43

## REGN5459: anti-BCMA×anti-CD3 bispecific antibody: BCMA HCVR of mAb21581 (SEQ 66), CD3 HCVR of mAb7221G20 (SEQ 98), common LCVR SEQ 82
[1]; 0.04 mg/kg
  Average Tumor Size (mm3) ± SEM on Day 3: 11.7 ± 2.1 mm3
  Average Tumor Size (mm3) ± SEM on Day 7: 37.0 ± 5.7 mm3
  Average Tumor Size (mm3) ± SEM on Day 10: 104 ± 23.0 mm3
  Average Tumor Size (mm3) ± SEM on Day 14: 356.7 ± 84.6 mm3
  Average Tumor Size (mm3) ± SEM on Day 17: 645.6 ± 140.9 mm3
  Average Tumor Size (mm3) ± SEM on Day 21: 1442.4 ± 310.7 mm3
  Average Tumor Size (mm3) ± SEM on Day 23: 2124.4 ± 444.1 mm3
  Average Tumor Size (mm3) ± SEM on Day 28: 1939.3 ± 840.6 mm3
  Average Tumor Size (mm3) ± SEM on Day 31: 2688.7 ± 1176.6 mm3
  Average Tumor Size (mm3) ± SEM on Day 35: 612.1 ± 0 mm3
[1]; 0.4 mg/kg
  Average Tumor Size (mm3) ± SEM on Day 3: 14.0 ± 1.6 mm3
  Average Tumor Size (mm3) ± SEM on Day 7: 0 ± 0 mm3
  Average Tumor Size (mm3) ± SEM on Day 10: 0 ± 0 mm3
  Average Tumor Size (mm3) ± SEM on Day 14: 0 ± 0 mm3
  Average Tumor Size (mm3) ± SEM on Day 17: 0 ± 0 mm3
  Average Tumor Size (mm3) ± SEM on Day 21: 0 ± 0 mm3
  Average Tumor Size (mm3) ± SEM on Day 23: 0 ± 0 mm3
  Average Tumor Size (mm3) ± SEM on Day 28: 0 ± 0 mm3
  Average Tumor Size (mm3) ± SEM on Day 31: 0 ± 0 mm3
  Average Tumor Size (mm3) ± SEM on Day 35: 0 ± 0 mm3
  Average Tumor Size (mm3) ± SEM on Day 42: 0 ± 0 mm3
  Average Tumor Size (mm3) ± SEM on Day 56: 0 ± 0 mm3
[1]; 4 mg/kg
  Average Tumor Size (mm3) ± SEM on Day 3: 12.9 ± 1.3 mm3
  Average Tumor Size (mm3) ± SEM on Day 7: 0.6 ± 0.6 mm3
  Average Tumor Size (mm3) ± SEM on Day 10: 0 ± 0 mm3
  Average Tumor Size (mm3) ± SEM on Day 14: 0 ± 0 mm3
  Average Tumor Size (mm3) ± SEM on Day 17: 0 ± 0 mm3
  Average Tumor Size (mm3) ± SEM on Day 21: 0 ± 0 mm3
  Average Tumor Size (mm3) ± SEM on Day 23: 0 ± 0 mm3
  Average Tumor Size (mm3) ± SEM on Day 28: 1.9 ± 1.9 mm3
  Average Tumor Size (mm3) ± SEM on Day 31: 3.8 ± 3.0 mm3
  Average Tumor Size (mm3) ± SEM on Day 35: 9.3 ± 7.5 mm3
  Average Tumor Size (mm3) ± SEM on Day 42: 12.8 ± 12.8 mm3
  Average Tumor Size (mm3) ± SEM on Day 56: 17.2 ± 17.2 mm3
[2]; 0.4 mg/kg group, 5 days post-implantation (before first dose on day 21)
  Radiance [p/s/cm2^2/sr] 5 days post-implantation (mean ± SEM): 5.09E+05 ± 3.56E+04 p/s/cm2^2/sr
[2]; 0.4 mg/kg group, 11 days post-implantation (before first dose on day 21)
  Radiance [p/s/cm2^2/sr] 11 days post-implantation (mean ± SEM): 6.45E+05 ± 2.39E+04 p/s/cm2^2/sr
[2]; 0.4 mg/kg group, 20 days post-implantation (before first dose on day 21)
  Radiance [p/s/cm2^2/sr] 20 days post-implantation (mean ± SEM): 2.13E+06 ± 1.69E+05 p/s/cm2^2/sr
[2]
  tumor burden (in words): reduced tumor burdens to background levels in the majority of animals
[2]; 0.4 mg/kg, 26 days post-implantation
  Radiance [p/s/cm2^2/sr] 26 days post-implantation (mean ± SEM): 1.28E+06 ± 7.36E+05 p/s/cm2^2/sr
[2]; 0.4 mg/kg, 31 days post-implantation
  Radiance [p/s/cm2^2/sr] 31 days post-implantation (mean ± SEM): 1.98E+06 ± 1.36E+06 p/s/cm2^2/sr
[2]; 0.4 mg/kg, 34 days post-implantation
  Radiance [p/s/cm2^2/sr] 34 days post-implantation (mean ± SEM): 4.24E+06 ± 3.69E+06 p/s/cm2^2/sr
[2]; 0.4 mg/kg, 38 days post-implantation
  Radiance [p/s/cm2^2/sr] 38 days post-implantation (mean ± SEM): 3.21E+06 ± 2.52E+06 p/s/cm2^2/sr
[2]; 0.4 mg/kg, 40 days post-implantation
  Radiance [p/s/cm2^2/sr] 40 days post-implantation (mean ± SEM): 3.84E+06 ± 3.34E+06 p/s/cm2^2/sr
[2]; 0.4 mg/kg, 47 days post-implantation
  Radiance [p/s/cm2^2/sr] 47 days post-implantation (mean ± SEM): 7.34E+05 ± 2.62E+04 p/s/cm2^2/sr
[2]; 0.4 mg/kg, 54 days post-implantation
  Radiance [p/s/cm2^2/sr] 54 days post-implantation (mean ± SEM): 6.41E+05 ± 5.96E+04 p/s/cm2^2/sr
[2]; 0.4 mg/kg, 61 days post-implantation
  Radiance [p/s/cm2^2/sr] 61 days post-implantation (mean ± SEM): 6.03E+05 ± 5.29E+04 p/s/cm2^2/sr
[3]
  S:N: 25

Reference: patent publication US20260008862A1, “Bispecific Anti-BCMA x Anti-CD3 Antibodies and Uses Thereof” (Regeneron Pharmaceuticals, Inc., priority 2018, published 2026)
